According to patent US6593299B1, “Compositions and methods for controlling pests” (priority 1999, dated 2003):
Square brackets hold non-standard residues; d marks the D form. Ends that are not written are not given here. Peptide text beside a SMILES is read from it.

Experiments:
[1] = test system: Aedes aegypti larvae; assay: Feeding TMOF and analog peptides to mosquito larvae (LD50); format: in vivo; settings: newly hatched larvae on autoclaved yeast 1 mg/ml, peptide 0 to 5.0 mg/ml, microtiter plates, 7 days
From the text: TMOF can traverse the gut epithelium, enter the hemolymph and bind a gut receptor (Borovsky, D. and F. Mahmood (1995) “Feeding the mosquito Aedes aegypti with TMOF and its analogs; effect on trypsin biosynthesis and egg development,” Regulatory Peptides 57:273-281.; Borovsky et al. (1994) “Characterization and localization of mosquito-gut receptors for trypsin modulating oostatic factor using complementary peptide immunochemistry”FASEB J. 8:350-355.). This characteristic permits the testing of TMOF and its analogues by feeding them to mosquito and other pest larvae. To find out if truncated TMOF peptides have an effect on larval growth and development, a series of peptides were synthesized and tested by feeding them to mosquito larvae at concentrations of 0 to 5.0 mg/ml (Table 2). Individual, newly hatched Aedes aegypti larvae were maintained in separate microtiter plate wells on a diet of autoclaved yeast (1 mg/ml). The diet was supplemented with TMOF peptides (Table 2). An identical number of larvae maintained on yeast served as a control. […] All control groups survived and larval growth and development was normal. Since larvae swallow only a small portion of the yeast particles adsorbed the peptides, it is assumed that approximately 1 to 20 ng are taken orally at the high concentrations.

[2] = test system: TTLE biosynthesis; assay: Feeding TMOF analogs to fourth instar H. virescens: gut trypsin (TTLE) biosynthesis by [3H]DFP; format: in vivo, Heliothis virescens; parameters: Trypsin: unit not given here; settings: fourth instar larvae, 0.8 mg of analogue, 5 days; for Trypsin: guts incubated with [3H]DFP; for Inhibition (trypsin): versus control
[3] = test system: first instar Heliothis virescens; assay: Feeding first instar H. virescens on TMOF analogs for 14 days; format: in vivo; parameters: Weight Reduction ± S.E.M.: concentration or dose not given beside the values; settings: first instar larvae fed 14 days; for Weight Reduction ± S.E.M.: versus control
Method: (§1) Several analogues were chosen and were fed to fourth instar Heliothis virescens for seven (7) days and to first instars for fourteen (14) days (Tables 3 and 4). In both cases a reduction in weight gain and trypsin inhibition was noted (Tables 3 and 4).
(§2) Individual first instar and fourth instar larvae of H. virescens were maintained in separate plastic cups and were fed on artificial diet blocks on which different concentrations of TMOF (0 to 1.6 mg) were adsorbed. Larvae were fed for 5 to 14 days and larval weight and trypsin activity were measured at the end of the experimental periods. […] When first instar larvae were fed for 14 days, an 18% and 26% reduction in weight was observed when analogues 15 and 16 were used (Table 4).

[4] = test system: fourth instar Heliothis virescens; assay: Feeding TMOF analogs to fourth instar H. virescens: larval weight; format: in vivo; settings: fourth instar larvae; for Weight Gain: 0.8 mg of analogue, 5 days; for Weight mg ± S.E.M. End: synthetic food and 0.8 mg of analogue, after 5 days; for Weight mg ± S.E.M. Start: weight before feeding (baseline)
Method: as §1, §2
Fourth instar larvae were weighed and fed on synthetic food and 0.8 mg of TMOF analogues for 5 days. […]. Results are average of 3 to 10 experiments S.E.M.

YDPAF [3. YDPAF, YDPAF]
LD50 + S.E.M. [1]: 0.33 ± 0.2 mM

C[C@H](NC(=O)[C@@H]1CCCN1)C(=O)N1CCC[C@H]1C(=O)O [38. PAP, PAP] (H-Pro-Ala-Pro-OH; N-terminus and C-terminus assumed)
LD50 + S.E.M. [1]: 3.17 ± 0.14 mM

YDFAP [14. YDFAP, YDFAP]
Trypsin [2]: 2.1 ± 0.2 | Inhibition (trypsin) [2]: 19 ± 1.5% | LD50 + S.E.M. [1]: 0.74 ± 0.13 mM | Number of Dead Larvae [3]: 1 | Weight ± S.E.M. [3]: 121 ± 7 mg | Weight Reduction ± S.E.M. [3]: 26 ± 1.5% | Weight Gain [4]: 164 mg | Weight mg ± S.E.M. End [4]: 201 ± 12 mg | Weight mg ± S.E.M. Start [4]: 37 ± 1.3 mg

C[C@H](NC(=O)[C@@H](N)Cc1ccccc1)C(=O)N1CCC[C@H]1C(=O)O [39. FAP, FAP] (H-Phe-Ala-Pro-OH; N-terminus and C-terminus assumed)
LD50 + S.E.M. [1]: 3.8 ± 0.23 mM

C[C@H](NC(=O)[C@@H]1CCCN1C(=O)[C@@H](CC(=O)O)NC(=O)[C@@H](N)Cc1ccc(O)cc1)C(=O)N1CCC[C@H]1C(=O)O [17. Y(D)DPAP, Y(D)DPAP] (H-Y[dD]PAP-OH; N-terminus and C-terminus assumed)
Trypsin [2]: 2.1 ± 0.2 | Inhibition (trypsin) [2]: 15 ± 1.3% | Number of Dead Larvae [3]: 1 | Weight ± S.E.M. [3]: 152 ± 27 mg | Weight Reduction ± S.E.M. [3]: 7 ± 1% | Weight Gain [4]: 153 mg | Weight mg ± S.E.M. End [4]: 188 ± 12 mg | Weight mg ± S.E.M. Start [4]: 34.6 ± 2 mg

YDPAA [19. YDPAA, YDPAA]
LD50 + S.E.M. [1]: 1.6 ± 0.13 mM

YDPAL [7. YDPAL, YDPAL]
LD50 + S.E.M. [1]: 0.52 ± 0.03 mM

YAPAP [8. YAPAP, YAPAP]
LD50 + S.E.M. [1]: 0.54 ± 0.13 mM

YDAAP [15. YDAAP, YDAAP]
Trypsin [2]: 2.1 ± 0.2 | Inhibition (trypsin) [2]: 17 ± 1.6% | LD50 + S.E.M. [1]: 1.0 ± 0.18 mM | Number of Dead Larvae [3]: 0 | Weight ± S.E.M. [3]: 133 ± 7 mg | Weight Reduction ± S.E.M. [3]: 18 ± 1% | Weight Gain [4]: 179 mg | Weight mg ± S.E.M. End [4]: 217 ± 9.5 mg | Weight mg ± S.E.M. Start [4]: 38.2 ± 1.3 mg

ADPAP [21. ADPAP, ADPAP]
LD50 + S.E.M. [1]: 2.0 ± 0.36 mM

N[C@@H](Cc1ccc(O)cc1)C(=O)N[C@@H](CO)C(=O)N[C@@H](Cc1ccccc1)C(=O)O [30. YSF, YSF] (H-Tyr-Ser-Phe-OH; N-terminus and C-terminus assumed)
LD50 + S.E.M. [1]: 1.08 ± 0.12 mM

C[C@H](N)C(=O)N[C@@H](C)C(=O)N1CCC[C@H]1C(=O)O [29. AAP, AAP] (H-Ala-Ala-Pro-OH; N-terminus and C-terminus assumed)
LD50 + S.E.M. [1]: 1.08 ± 0.07 mM

YDPGP [16. YDPGP, YDPGP]
Trypsin [2]: 2.1 ± 0.1 | Inhibition (trypsin) [2]: 17 ± 1% | LD50 + S.E.M. [1]: 1.1 ± 0.18 mM | Number of Dead Larvae [3]: 2 | Weight ± S.E.M. [3]: 153 ± 10 mg | Weight Reduction ± S.E.M. [3]: 6 ± 0.4% | Weight Gain [4]: 163.1 mg | Weight mg ± S.E.M. End [4]: 199.8 ± 11 mg | Weight mg ± S.E.M. Start [4]: 31.7 ± 1.6 mg

YDLAP [13. YDLAP, YDLAP]
LD50 + S.E.M. [1]: 0.6 ± 0.05 mM

N[C@@H](Cc1ccc(O)cc1)C(=O)N[C@@H](CC(=O)O)C(=O)N1CCC[C@H]1C(=O)O [34. YDP, YDP] (H-Tyr-Asp-Pro-OH; N-terminus and C-terminus assumed)
Trypsin [2]: 2.1 ± 0.3 | Inhibition (trypsin) [2]: 19 ± 3.2% | LD50 + S.E.M. [1]: 2.3 ± 0.4 mM | Number of Dead Larvae [3]: 0 | Weight ± S.E.M. [3]: 157 ± 10 mg | Weight Reduction ± S.E.M. [3]: 4 ± 0.2% | Weight Gain [4]: 186.3 mg | Weight mg ± S.E.M. End [4]: 223.4 ± 16 mg | Weight mg ± S.E.M. Start [4]: 37 ± 1.5 mg

N[C@@H](Cc1ccc(O)cc1)C(=O)N[C@@H](CC(=O)O)C(=O)N[C@@H](Cc1ccccc1)C(=O)O [27. YDF, YDF] (H-Tyr-Asp-Phe-OH; N-terminus and C-terminus assumed)
LD50 + S.E.M. [1]: 0.97 ± 0.11 mM

C[C@H](NC(=O)[C@@H](N)Cc1ccc(O)cc1)C(=O)N1CCC[C@H]1C(=O)O [36. YAP, YAP] (H-Tyr-Ala-Pro-OH; N-terminus and C-terminus assumed)
LD50 + S.E.M. [1]: 2.3 ± 0.5 mM

YDPAP [12. YDPAP, YDPAP, reference compound]
LD50 + S.E.M. [1]: 0.64 ± 0.03 mM

N[C@@H](CC(=O)O)C(=O)N[C@@H](Cc1ccc(O)cc1)C(=O)N1CCC[C@H]1C(=O)O [31. DYP, DYP] (H-Asp-Tyr-Pro-OH; N-terminus and C-terminus assumed)
Trypsin [2]: 2.2 ± 0.3 | Inhibition (trypsin) [2]: 14 ± 1.8% | LD50 + S.E.M. [1]: 1.27 ± 0.17 mM | Number of Dead Larvae [3]: 1 | Weight ± S.E.M. [3]: 149 ± 9 mg | Weight Reduction ± S.E.M. [3]: 9 ± 0.5% | Weight Gain [4]: 180.5 mg | Weight mg ± S.E.M. End [4]: 216.7 ± 13 mg | Weight mg ± S.E.M. Start [4]: 36.2 ± 2.4 mg

C[C@H](NC(=O)[C@H](CC(=O)O)NC(=O)[C@@H](N)Cc1ccc(O)cc1)C(=O)O [32. YDA, YDA] (H-Tyr-Asp-Ala-OH; N-terminus and C-terminus assumed)
LD50 + S.E.M. [1]: 1.6 ± 0.13 mM

C[C@H](NC(=O)[C@H](C)NC(=O)[C@@H](N)CC(=O)O)C(=O)O [25. DAA, DAA] (H-Asp-Ala-Ala-OH; N-terminus and C-terminus assumed)
LD50 + S.E.M. [1]: 0.91 ± 0.06 mM

YDPAPPPPPP [1. YDPAP6, YDPAP6, reference compound]
LD50 + S.E.M. [1]: 0.2 ± 0.02 mM

N[C@@H](Cc1ccc(O)cc1)C(=O)N[C@@H](CC(=O)O)C(=O)O [41. YD, YD] (H-Tyr-Asp-OH; N-terminus and C-terminus assumed)
LD50 + S.E.M. [1]: 1.24 ± 0.06 mM

FDPAP [5. FDPAP, FDPAP]
LD50 + S.E.M. [1]: 0.37 ± 0.15 mM

N[C@@H](CC(=O)O)C(=O)N[C@@H](Cc1ccc(O)cc1)C(=O)O [42. DY, DY] (H-Asp-Tyr-OH; N-terminus and C-terminus assumed)
LD50 + S.E.M. [1]: 3.0 ± 0.8 mM

MPDYPPPPP [2. MPDYP5, MPDYP5]
LD50 + S.E.M. [1]: >3.0 mM

YNPAP [9. YNPAP, YNPAP]
LD50 + S.E.M. [1]: 0.55 ± 0.03 mM

N[C@@H](Cc1ccc(O)cc1)C(=O)N[C@H](CC(=O)O)C(=O)N1CCC[C@H]1C(=O)O [22. Y(D)DP, Y(D)DP] (H-Tyr-[dD]-Pro-OH; N-terminus and C-terminus assumed)
LD50 + S.E.M. [1]: 0.28 ± 0.01 mM

C[C@H](N)C(=O)N[C@@H](CC(=O)O)C(=O)N1CCC[C@H]1C(=O)O [40. ADP, ADP] (H-Ala-Asp-Pro-OH; N-terminus and C-terminus assumed)
LD50 + S.E.M. [1]: >6.6 mM

N[C@@H](Cc1ccccc1)C(=O)N[C@@H](CC(=O)O)C(=O)N1CCC[C@H]1C(=O)O [33. FDP, FDP] (H-Phe-Asp-Pro-OH; N-terminus and C-terminus assumed)
LD50 + S.E.M. [1]: 1.98 ± 0.6 mM

N[C@@H](Cc1ccc(O)cc1)C(=O)N[C@@H](CC(=O)O)C(=O)NCC(=O)O [26. YDG, YDG] (H-Tyr-Asp-Gly-OH; N-terminus and C-terminus assumed)
LD50 + S.E.M. [1]: 0.95 ± 0.11 mM

C[C@H](NC(=O)[C@H](C)NC(=O)[C@@H]1CCCN1)C(=O)O [37. PAA, PAA] (H-Pro-Ala-Ala-OH; N-terminus and C-terminus assumed)
LD50 + S.E.M. [1]: 2.4 ± 0.34 mM

ADAAP (()..() TMOF analog) [ADAAP(12)]
Trypsin [2]: 2.4 ± 0.3 | Inhibition (trypsin) [2]: 5 ± 0.6% | Number of Dead Larvae [3]: 0 | Weight ± S.E.M. [3]: 141 ± 9 mg | Weight Reduction ± S.E.M. [3]: 7 ± 0.4% | Weight Gain [4]: 174.1 mg | Weight mg ± S.E.M. End [4]: 209.7 ± 12 mg | Weight mg ± S.E.M. Start [4]: 35.7 ± 1.5 mg

N[C@@H](Cc1ccccc1)C(=O)N[C@@H](CO)C(=O)N1CCC[C@H]1C(=O)O [35. FSP, FSP] (H-Phe-Ser-Pro-OH; N-terminus and C-terminus assumed)
LD50 + S.E.M. [1]: 2.3 ± 0.13 mM

YDPLP [6. YDPLP, YDPLP]
LD50 + S.E.M. [1]: 0.5 ± 0.04 mM

C[C@H](N)C(=O)N1CCC[C@H]1C(=O)N[C@@H](C)C(=O)O [28. APA, APA] (H-Ala-Pro-Ala-OH; N-terminus and C-terminus assumed)
LD50 + S.E.M. [1]: 1.0 ± 0.07 mM

YFPAP [11. YFPAP, YFPAP]
LD50 + S.E.M. [1]: 0.64 ± 0.03 mM

N[C@H](Cc1ccc(O)cc1)C(=O)N[C@@H](CC(=O)O)C(=O)N1CCC[C@H]1C(=O)O [24. (D)YDP, (D)YDP] (H-[dY]-Asp-Pro-OH; N-terminus and C-terminus assumed)
LD50 + S.E.M. [1]: 0.51 ± 0.05 mM

YEPAP [4. YEPAP, YEPAP]
LD50 + S.E.M. [1]: 0.35 ± 0.02 mM

YDPFP [20. YDPFP, YDPFP]
LD50 + S.E.M. [1]: 1.7 ± 0.4 mM
